Here are results for four molecules from patent US11730792B2, “Coversin (OmCI) for the treatment of autoimmune blistering diseases: bullous pemphigoid (BP) and epidermolysis bullosa acquisita (EBA)” (VOLUTION IMMUNO PHARMACEUTICALS SA, priority 2017, dated 2023).

For data set [1], the system named is experimental EBA. The data set can be described thus: Experimental EBA, prophylactic PAS-L-Coversin versus Coversin (Example 4). Format: in vivo, mice. Particulars: 2.5 mg/kg Coversin; for Clinical score of experimental EBA: prophylactic. How it is done: (§1) Antibody transfer EBA was induced using a modified version of the protocol described by Sitaru et al., 2005 [43]. Five mice were tested in each treatment group. […] Mice were injected subcutaneously twice daily with three varying doses of Coversin starting […] before the first injection of anti-Col7 IgG (day −2). This application was continued throughout the experiment until its last day on day 11. In the control groups the mice received only the vehicle subcutaneously, or 20 mg/kg methylprednisolone once daily.
(§2) Starting on day 4, the extent of skin lesions was scored in each individual mouse every other day. […] The percentage of the total body surface affected by skin lesions (ABSA) was calculated.
In a further experiment, the effect of PAS-L-Coversin was assessed. Mice were treated with 0.1 mg/kg, 10 mg/kg, 1 mg/kg PAS-L-Coversin, or 2.5 mg/kg Coversin, with the experiment being carried out as described above. […] The sequence of the L-Coversin sequence is a variant of the mature Coversin sequence (SEQ ID NO: 4) in which the following residues have been modified: Ala44 to Asn, Met116 to Gln, Leu117 to Ser, Gly121 to Ala, Leu122 to Asp, Glu123 to Ala and Asp149 to Gly, (referred to as variant 2, sequence is dsesdctgse pvdafqafse gkeayvlvrs tdpkardclk gepNgekqdn tlpvmmtfkn gtdwastdwt ftldgakvta tlgnitqnre vvydsqshhc hvdkvekevp dyemwQSdag ADAveveccr qkleelasgr nqmyphlkGc (SEQ ID NO:23), where the changes relative to the native Coversin sequence of SEQ ID NO:4 are in capitals). Because of the higher molecule weight of the PAS-L-Cov, 10 mg/kg PAS-L-Cov corresponds to 2.5 mg/kg Coversin. In the first experiment (FIG. 6A) the 10 mg/kg dose but not 1 mg/kg or 0.1 mg/kg dose of PAS-L-Coversin reduced ABSA compared to control. In the second experiment (FIG. 6B), the 10 mg/kg dose and the 1 mg/kg but not the 0.1 mg/kg dose of PAS-L-Coversin reduced ABSA compared to control.

Data set [2] has as its target T1, C5 (Rattus norvegicus, UniProt P08650).
T1 construct: from tissue; host or cells: rat serum
The data set can be described thus: Prevention of C5 cleavage by C5 convertase in rat serum. Format: biochemical. From the text:
(§3) Coversin was isolated from the salivary glands of the tick Ornithodoros moubata. Coversin is an outlying member of the lipocalin family and is the first lipocalin family member shown to inhibit complement activation. Coversin inhibits the classical, alternative and lectin complement pathways by binding to C5 and preventing its cleavage by C5 convertase into C5a and C5b, thus inhibiting both the production of C5a, which is an active (e.g. proinflammatory) peptide, and the formation of the MAC.

Data set [3] deals with Antibody transfer EBA-like skin inflammation. Nature of the data set: Passive EBA mouse model, Coversin administered therapeutically from day 5 (Example 2). Particulars: for Two-way ANOVA, vehicle control versus Coversin: all doses used, N=5 per group. Format: in vivo, C57Bl/6J WT mice. How it is done:
The study included the following experimental groups, with 5 mice in each experimental group: • 1. Vehicle (PBS) control group • 2. 125 μg/kg Coversin 2× daily s.c. • 3. 2500 μg/kg Coversin 2× daily s.c.
Antibody transfer EBA-like skin inflammation was induced, as described in Sezin et al.
The treatment of mice with Coversin started on Day 5 of the experiment (Day 0=day of first administration of anti-COL7 antibody). Afterwards, mice were injected 12 hourly s.c. in the scapular region with Coversin or vehicle control until the end of the experiment.
Disease severity was scored. […] The percentage of the absolute body surface affected by skin lesions (ABSA) was calculated. To score the disease, the mice were anesthetized every other day with a mixture of ketamine/xylazine administered i.p. starting day 4 of the experiment.
Two independent experiments were conducted according to this protocol.
Prior to the beginning of the experiment mean weight of the mice was calculated and 2.5 mg/kg and 0.125 mg/kg of the drug were prepared freshly to a final volume of 100 μl in PBS pH 7.2. The drug was prepared freshly, twice daily, 30 minutes before the final injection into the mice. Thereafter, based on the mean weight of the mice the drug was adjusted with PBS pH 7.2 to a concentration appropriate to provide the required mg/kg dose in a final volume of 100 μl. Drug was prepared freshly twice daily, 30 minutes before the final application into the animals. As a vehicle control 100 μl of PBS pH 7.2 was injected s.c into the mice.
ABSA between treatment groups was evaluated by two-way ANOVA conducted using GraphPad Prism 7.

The target in data set [4] is T2, C5 (Homo sapiens, UniProt P01031). Nature of the data set: Prevention of C5 cleavage by C5 convertase in human serum. Format: biochemical. Details: from tissue; host or cells: human serum.
Description: as §3
Target sequence in this assay (P01031 678-1676 limits assumed): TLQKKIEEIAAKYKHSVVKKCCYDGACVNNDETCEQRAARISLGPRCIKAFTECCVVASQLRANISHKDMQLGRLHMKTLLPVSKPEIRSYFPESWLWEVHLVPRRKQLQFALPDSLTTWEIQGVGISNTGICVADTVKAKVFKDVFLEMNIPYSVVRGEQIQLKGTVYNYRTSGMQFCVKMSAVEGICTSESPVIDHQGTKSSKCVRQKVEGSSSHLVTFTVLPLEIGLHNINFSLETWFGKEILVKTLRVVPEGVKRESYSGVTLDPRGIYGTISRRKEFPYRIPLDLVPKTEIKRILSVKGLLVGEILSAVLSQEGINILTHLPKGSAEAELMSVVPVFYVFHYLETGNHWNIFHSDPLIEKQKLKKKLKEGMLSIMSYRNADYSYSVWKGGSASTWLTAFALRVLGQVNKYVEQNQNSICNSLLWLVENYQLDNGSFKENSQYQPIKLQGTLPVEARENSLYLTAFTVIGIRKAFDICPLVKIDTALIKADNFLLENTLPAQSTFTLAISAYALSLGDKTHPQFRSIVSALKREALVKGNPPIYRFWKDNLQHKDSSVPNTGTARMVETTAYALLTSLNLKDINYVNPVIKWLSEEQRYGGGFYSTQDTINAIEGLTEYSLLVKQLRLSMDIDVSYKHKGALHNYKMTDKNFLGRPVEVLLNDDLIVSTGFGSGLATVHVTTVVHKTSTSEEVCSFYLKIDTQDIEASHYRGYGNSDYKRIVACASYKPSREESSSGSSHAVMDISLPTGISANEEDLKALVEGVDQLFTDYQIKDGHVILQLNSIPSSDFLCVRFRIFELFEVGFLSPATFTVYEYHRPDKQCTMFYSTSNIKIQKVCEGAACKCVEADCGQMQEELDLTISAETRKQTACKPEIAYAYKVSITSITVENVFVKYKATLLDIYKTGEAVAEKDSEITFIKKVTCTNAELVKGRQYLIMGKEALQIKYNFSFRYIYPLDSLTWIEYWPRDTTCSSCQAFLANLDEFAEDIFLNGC
Target sequence in this assay (P01031 19-673 partner limits assumed): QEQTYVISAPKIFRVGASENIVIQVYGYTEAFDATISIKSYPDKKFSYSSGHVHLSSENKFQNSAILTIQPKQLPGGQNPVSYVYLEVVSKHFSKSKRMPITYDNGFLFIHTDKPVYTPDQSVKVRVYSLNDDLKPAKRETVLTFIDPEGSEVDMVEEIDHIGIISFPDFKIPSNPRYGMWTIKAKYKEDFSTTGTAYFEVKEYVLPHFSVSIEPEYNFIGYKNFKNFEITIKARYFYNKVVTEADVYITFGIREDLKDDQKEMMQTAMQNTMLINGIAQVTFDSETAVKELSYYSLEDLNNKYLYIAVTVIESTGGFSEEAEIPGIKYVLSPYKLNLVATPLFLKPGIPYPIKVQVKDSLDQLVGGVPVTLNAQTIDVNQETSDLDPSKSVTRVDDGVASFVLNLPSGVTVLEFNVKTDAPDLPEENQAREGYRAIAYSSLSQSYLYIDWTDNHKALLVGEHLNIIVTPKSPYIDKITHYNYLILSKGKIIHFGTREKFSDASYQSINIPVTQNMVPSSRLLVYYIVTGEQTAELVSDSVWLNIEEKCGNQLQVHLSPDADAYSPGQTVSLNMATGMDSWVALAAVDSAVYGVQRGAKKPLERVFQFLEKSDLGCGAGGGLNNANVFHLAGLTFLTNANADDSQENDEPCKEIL

In data set [5] the test system is experimental EBA. Nature of the data set: Antibody transfer EBA model, Coversin administered prophylactically (Example 1). Particulars: for Two-way ANOVA, vehicle control versus Coversin: combined experiments 1 and 2; for percentage ABSA: prophylactic. Format: in vivo, mice. Also on record: Two-way ANOVA, vehicle control versus Coversin: dose or concentration left out as unconfirmed. As to the method:
as §1
To generate antibodies directed to murine type VII collagen (“anti-COL7”), New Zealand White rabbits were immunized with 200 μg of a protein mixture containing three different recombinant proteins (“Col7A, B, and C”) derived from the non-collagenous 1 (NC1) domain of collagen VII together with incomplete Freund's adjuvant. IgGs were isolated from the serum of immunized rabbits by use of protein G, and afterwards IgGs were affinity-purified with his-Col7 to specifically obtain rabbit anti-Col7 IgG. Antibodies were quality checked by determining the titer and the potency in the cryosection assay.
as §2
Two independent experiments were conducted.

Data set [6] has as its target T2, C5. Particulars: surface plasmon resonance, ref [31]; cited from earlier work.
Target sequence in this assay (P01031 19-1676): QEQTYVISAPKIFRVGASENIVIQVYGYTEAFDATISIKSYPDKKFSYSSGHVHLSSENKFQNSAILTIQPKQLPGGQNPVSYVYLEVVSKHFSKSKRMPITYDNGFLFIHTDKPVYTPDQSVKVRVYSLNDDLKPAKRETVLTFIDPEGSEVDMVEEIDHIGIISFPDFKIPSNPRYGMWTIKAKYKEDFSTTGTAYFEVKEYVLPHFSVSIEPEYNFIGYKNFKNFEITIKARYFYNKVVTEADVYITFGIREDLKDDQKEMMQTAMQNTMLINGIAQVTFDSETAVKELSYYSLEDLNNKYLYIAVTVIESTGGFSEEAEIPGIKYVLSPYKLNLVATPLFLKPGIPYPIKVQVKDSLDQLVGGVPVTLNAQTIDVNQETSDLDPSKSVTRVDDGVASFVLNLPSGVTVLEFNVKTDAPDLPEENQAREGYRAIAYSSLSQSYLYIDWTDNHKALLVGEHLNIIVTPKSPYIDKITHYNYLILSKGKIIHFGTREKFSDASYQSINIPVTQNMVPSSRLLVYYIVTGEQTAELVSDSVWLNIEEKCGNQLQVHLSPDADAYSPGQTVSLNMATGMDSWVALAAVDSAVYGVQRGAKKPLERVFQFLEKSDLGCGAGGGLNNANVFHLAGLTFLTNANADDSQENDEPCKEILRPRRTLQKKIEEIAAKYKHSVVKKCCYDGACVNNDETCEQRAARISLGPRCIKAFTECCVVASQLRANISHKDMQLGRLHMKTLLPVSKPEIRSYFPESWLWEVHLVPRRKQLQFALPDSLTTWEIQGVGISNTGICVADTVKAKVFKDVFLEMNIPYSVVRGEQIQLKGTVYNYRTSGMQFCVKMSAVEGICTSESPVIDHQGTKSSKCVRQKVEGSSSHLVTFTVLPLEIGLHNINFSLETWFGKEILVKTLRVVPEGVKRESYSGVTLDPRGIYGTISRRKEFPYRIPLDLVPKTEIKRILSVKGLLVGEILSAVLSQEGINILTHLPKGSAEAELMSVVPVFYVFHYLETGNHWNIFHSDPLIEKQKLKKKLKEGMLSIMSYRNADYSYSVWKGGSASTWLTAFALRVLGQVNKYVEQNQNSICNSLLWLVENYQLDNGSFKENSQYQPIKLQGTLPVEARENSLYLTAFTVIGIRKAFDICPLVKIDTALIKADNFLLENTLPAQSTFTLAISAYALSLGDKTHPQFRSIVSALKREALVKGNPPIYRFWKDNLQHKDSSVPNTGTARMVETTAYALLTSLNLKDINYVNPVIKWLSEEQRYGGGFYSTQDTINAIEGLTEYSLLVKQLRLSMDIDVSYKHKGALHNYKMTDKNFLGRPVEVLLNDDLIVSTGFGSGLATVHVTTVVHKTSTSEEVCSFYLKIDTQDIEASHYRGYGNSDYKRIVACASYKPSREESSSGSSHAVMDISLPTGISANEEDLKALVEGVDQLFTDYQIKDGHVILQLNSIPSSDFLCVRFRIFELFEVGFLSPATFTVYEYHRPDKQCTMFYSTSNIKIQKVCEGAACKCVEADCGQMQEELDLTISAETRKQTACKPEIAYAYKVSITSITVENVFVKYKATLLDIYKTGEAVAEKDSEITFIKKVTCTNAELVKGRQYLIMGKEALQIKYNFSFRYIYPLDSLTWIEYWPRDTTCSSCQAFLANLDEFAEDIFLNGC
In data set [7] the target is T3, C5 (Mus musculus, UniProt P06684).
T3 construct: from tissue; host or cells: mouse serum
T3 sequence (P06684 679-1680 limits assumed): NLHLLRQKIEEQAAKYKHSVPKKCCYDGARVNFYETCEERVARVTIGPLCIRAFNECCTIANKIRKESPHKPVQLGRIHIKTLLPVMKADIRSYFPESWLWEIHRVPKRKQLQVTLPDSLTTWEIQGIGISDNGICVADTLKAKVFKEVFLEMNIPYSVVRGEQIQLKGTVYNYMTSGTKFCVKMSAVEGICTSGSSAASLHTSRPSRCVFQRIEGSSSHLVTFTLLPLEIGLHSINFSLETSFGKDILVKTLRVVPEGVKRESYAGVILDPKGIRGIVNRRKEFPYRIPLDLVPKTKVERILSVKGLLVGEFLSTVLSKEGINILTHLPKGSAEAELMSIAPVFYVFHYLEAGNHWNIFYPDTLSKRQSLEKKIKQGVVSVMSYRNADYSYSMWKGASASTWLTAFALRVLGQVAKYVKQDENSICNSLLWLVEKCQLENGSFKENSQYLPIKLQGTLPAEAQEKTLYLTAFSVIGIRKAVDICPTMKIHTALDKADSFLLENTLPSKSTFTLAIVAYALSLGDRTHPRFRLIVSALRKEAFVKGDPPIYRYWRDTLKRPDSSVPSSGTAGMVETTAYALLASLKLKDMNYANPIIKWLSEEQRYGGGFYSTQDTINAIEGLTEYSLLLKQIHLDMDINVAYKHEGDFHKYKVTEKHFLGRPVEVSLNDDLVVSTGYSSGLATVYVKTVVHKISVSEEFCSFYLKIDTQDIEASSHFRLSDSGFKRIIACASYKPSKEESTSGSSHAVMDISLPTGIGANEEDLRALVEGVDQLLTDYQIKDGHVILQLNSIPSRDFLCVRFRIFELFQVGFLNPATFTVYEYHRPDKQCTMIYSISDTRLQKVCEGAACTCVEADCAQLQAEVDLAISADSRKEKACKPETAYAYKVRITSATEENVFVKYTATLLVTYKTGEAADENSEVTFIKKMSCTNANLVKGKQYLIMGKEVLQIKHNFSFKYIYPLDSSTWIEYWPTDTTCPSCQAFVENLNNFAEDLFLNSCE
T3 sequence (P06684 19-674 partner limits assumed): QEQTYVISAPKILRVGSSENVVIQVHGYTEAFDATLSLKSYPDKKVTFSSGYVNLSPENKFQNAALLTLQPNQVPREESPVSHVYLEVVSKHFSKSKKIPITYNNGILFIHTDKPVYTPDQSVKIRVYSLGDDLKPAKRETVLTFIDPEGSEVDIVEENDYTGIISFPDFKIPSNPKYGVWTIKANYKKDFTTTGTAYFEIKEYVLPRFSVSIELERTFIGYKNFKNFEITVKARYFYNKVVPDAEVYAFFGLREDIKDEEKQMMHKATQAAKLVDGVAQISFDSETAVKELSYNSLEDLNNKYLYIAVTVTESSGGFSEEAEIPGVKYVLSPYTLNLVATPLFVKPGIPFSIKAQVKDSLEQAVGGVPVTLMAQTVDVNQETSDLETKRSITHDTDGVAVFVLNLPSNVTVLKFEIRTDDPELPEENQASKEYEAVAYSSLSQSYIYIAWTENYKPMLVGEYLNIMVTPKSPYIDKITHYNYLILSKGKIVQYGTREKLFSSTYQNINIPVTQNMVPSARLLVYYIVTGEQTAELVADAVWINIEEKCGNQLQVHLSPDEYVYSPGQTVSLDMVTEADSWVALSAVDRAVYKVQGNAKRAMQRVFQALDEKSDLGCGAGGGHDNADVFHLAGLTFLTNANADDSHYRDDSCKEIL
Nature of the data set: Prevention of C5 cleavage by C5 convertase in mouse serum. Format: biochemical.
Description: as §3

Data set [8] has as its target T4, Ornithodoros moubata Coversin (EV576, OmCI), amino acids 19 to 168 of SEQ ID NO: 2 (SEQ ID NO: 4) (Ornithodoros moubata, UniProt Q5YD59).
T4 sequence (Q5YD59 19-168): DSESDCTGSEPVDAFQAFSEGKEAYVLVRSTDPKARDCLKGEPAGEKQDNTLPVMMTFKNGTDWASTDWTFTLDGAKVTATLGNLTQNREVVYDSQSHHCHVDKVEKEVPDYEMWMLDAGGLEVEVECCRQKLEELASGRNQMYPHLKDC
The data set can be described thus: LTB4 binding to Coversin by fluorescence titration. How it is done:
This may be carried out by may be carried out as follows:
Purified 100 nM solutions of Coversin, in 2 mL PBS were applied in a quartz cuvette (10 mm path length; Hellma, Malheim, Germany) equipped with a magnetic stirrer. Temperature was adjusted to 20° C. and, after equilibrium was reached, protein Tyr/Trp fluorescence was excited at 280 nm (slit width: 15 nm). The fluorescence emission was measured at 340 nm (slit width: 16 nm) corresponding to the emission maximum. […] For calculation of the KD value, data was normalized to an initial fluorescence intensity of 100%, the inner filter effect was corrected using a titration of 3 μM N-acetyl-tryptophanamide solution and data was plotted against the corresponding ligand concentration. Then, non-linear least squares regression based on the law of mass action for bimolecular complex formation was used to fit the data with Origin software version 8.5 (OriginLab, Northampton, Mass., USA) using a published formula (Breustedt et al., 2006).

Data set [9] relates to Experimental EBA. The conditions noted are these: ref [44], cited from earlier work.
Data set [10] can be described thus: LTB4 binding of L-Coversin (method not given). Particulars: mutated Coversin sequence (variant 2).
Data set [11] addresses T2, C5. The data set can be described thus: C5 binding of L-Coversin (method not given). Particulars: mutated Coversin sequence (variant 2).
Target sequence in this assay (P01031 19-1676): as the sequence (P01031 19-1676) above

“Also recorded” adds a separate entry of the source.

Regarding “Coversin: tick Ornithodoros moubata protein, amino acids 19 to 168 of SEQ ID NO: 2 (SEQ ID NO: 4); binds C5 and LTB4”, the “Clinical score of experimental EBA” value in the data set on experimental EBA [1] (Example 4, experiment 1 (FIG. 6A)) is given as “ameliorated disease”; in the data set with experimental EBA [1] (Example 4, experiment 2 (FIG. 6B)) it was “ameliorated disease”; with experimental EBA [5] (combined results of experiments 1 and 2 (FIG. 5), all doses), “ameliorated disease”; with experimental EBA [5] (experiment 1 (FIG. 3), all doses of Coversin, vs vehicle control group and methylprednisolone group), “ameliorated disease”; in the data set on experimental EBA [5] (experiment 2 (FIG. 4), all doses of Coversin, vs vehicle control group and methylprednisolone group) it was “ameliorated disease”. In the data set with experimental EBA [1] (second experiment (FIG. 6B)), the “statistical significance of effect on ABSA” value is given as “statistically significant effect”. In addition, the “IC50, binding C5 and preventing its cleavage by C5 convertase” value in the data set with C5 [2], in the data set with C5 [4] and with C5 [7] was “approximately 0.02 mg/ml” each time. Also, the “Two-way ANOVA, vehicle control versus Coversin” value is on record as “significant differences” in [3] (Experiment 1 (FIG. 7), females); “significant differences” in [3] (Experiment 2 (FIG. 8), males); “statistically significant difference” in the data set on experimental EBA [5] (dose 250); “statistically significant difference” with experimental EBA [5] (dose 2500). Also, in [3] (Experiment 1, 2.5 mg/kg Coversin, vehicle about 7%), the ABSA entry is recorded as “effective in reducing ABSA”. In [3] (Experiment 1, females, 125 and 2500 μg/kg 2× daily s.c. from day 5), the “skin inflammation measured by absolute body surface area affected (ABSA), dose dependence” value is “dose-dependently ameliorated skin inflammation”. For the same molecule, the “skin inflammation, dose dependence” value in data set [3] (Experiment 2 (FIG. 8), males, 125 and 2500 μg/kg 2× daily s.c. from day 5) is listed as “dose-dependently ameliorated skin inflammation”. Moreover, the “skin inflammation measured by ABSA” value in [3] (Experiment 2, 2.5 mg/kg Coversin, vehicle peaked at about 4%) is listed as “significantly (P<0.01) ameliorated skin inflammation”. The deaths during treatment result in [3] (the two experiments, up to day 12) is “no deaths”. For the same molecule, the “reduction of percentage ABSA compared with previously tested agents (Zileuton, methylprednisolone)” value in the data set with experimental EBA [5] (comparison with similar earlier experiments, particularly at 2.5 mg/kg and 0.25 mg/kg) was “to a greater degree; also recorded: greater effect”. In the data set on experimental EBA [5] (experiment 2 (FIG. 4), only at the 2.5 mg/kg dose), the “significance of effect compared to vehicle control group” value is given as “significant effect”. Besides, in the data set with experimental EBA [5] (first experiment, 0.25 mg/kg dose, P 0.0023 by two tailed t-test), the “difference in ABSA between vehicle and treated” value worked out at 63%. Further, the “mean ABSA score (SD)” value in the data set on experimental EBA [5] (first experiment, 0.25 mg/kg dose, day 10, vehicle 6.23+1.1) was 2.65+0.4. In addition, the “percentage ABSA” value is “reduced” in the data set with experimental EBA [5] (first experiment, Coversin 25 μg/kg s.c. twice daily); “further reduced” with experimental EBA [5] (first experiment, Coversin 250 μg/kg s.c. twice daily); “further reduced” with experimental EBA [5] (first experiment, Coversin 2500 μg/kg s.c. twice daily). Moreover, the dissociation constant (Kd) – broadly, the free concentration of one partner at which half of the binding sites on the other are occupied at equilibrium, for simple one-to-one binding – in the data set with C5 [6] was 1000 pM.
Consider `CCCCC/C=C\C[C@@H](O)/C=C/C=C/C=C\[C@@H](O)CCCC(=O)O` [LTB4, Leukotriene B4], for which the Kd in [8] lay in the range of 200 to 300 pM.
For `CC(c1cc2ccccc2s1)N(O)C(N)=O` (stereo not shown) [Zileuton, N-[1-(1-benzothien-2-yl)ethyl]-N-hydroxyurea], in the data set with Experimental EBA [9] (0.6-0.8 mg/mouse/day in drinking water, female mice, control group 9.2±0.7), the “clinical score day 7” value was 5.9±0.5 % of affected surface body area. Besides, the “disease severity as compared to control group” value in the data set with Experimental EBA [9] (from day 7 until end-point, 0.6-0.8 mg/mouse/day) was “significantly reduced disease severity”.

B1: L-Coversin: SEQ ID NO: 23; SEQ ID NO: 4 with Ala44Asn, Met116Gln, Leu117Ser, Gly121Ala, Leu122Asp, Glu123Ala, Asp149Gly (protein)
chain: DSESDCTGSEPVDAFQAFSEGKEAYVLVRSTDPKARDCLKGEPNGEKQDNTLPVMMTFKNGTDWASTDWTFTLDGAKVTATLGNLTQNREVVYDSQSHHCHVDKVEKEVPDYEMWQSDAGADAVEVECCRQKLEELASGRNQMYPHLKGC
modifications: Coversin variant 2
In the case of B1, in data set [10], the LTB4 binding entry was “binds LTB4”. Also, in the data set with C5 [11], the C5 binding entry is listed as “does not bind C5”.
